Laboratory results as given in patent US10281476B2, “Methods to identify modulators of RyR calcium channels” (REGENTS OF THE UNIVERSITY OF MINNESOTA, priority 2013, dated 2019).
Where no end group is shown, it is not given here.

Legend:
RyR2 = RyR2 (Rattus norvegicus, UniProt B0LPN4); experiment: Fluorescent FKBP12.6 binding at the Z-line of permeabilized myocytes; set-up: These fluorescent proteins were added to saponin-permeabilized myocytes with or without pre-equilibration with saturating DPc10 concentration; endogenous in cells; host or cells: saponin-permeabilized rat ventricular myocytes
Chain of RyR2 (B0LPN4 whole entry): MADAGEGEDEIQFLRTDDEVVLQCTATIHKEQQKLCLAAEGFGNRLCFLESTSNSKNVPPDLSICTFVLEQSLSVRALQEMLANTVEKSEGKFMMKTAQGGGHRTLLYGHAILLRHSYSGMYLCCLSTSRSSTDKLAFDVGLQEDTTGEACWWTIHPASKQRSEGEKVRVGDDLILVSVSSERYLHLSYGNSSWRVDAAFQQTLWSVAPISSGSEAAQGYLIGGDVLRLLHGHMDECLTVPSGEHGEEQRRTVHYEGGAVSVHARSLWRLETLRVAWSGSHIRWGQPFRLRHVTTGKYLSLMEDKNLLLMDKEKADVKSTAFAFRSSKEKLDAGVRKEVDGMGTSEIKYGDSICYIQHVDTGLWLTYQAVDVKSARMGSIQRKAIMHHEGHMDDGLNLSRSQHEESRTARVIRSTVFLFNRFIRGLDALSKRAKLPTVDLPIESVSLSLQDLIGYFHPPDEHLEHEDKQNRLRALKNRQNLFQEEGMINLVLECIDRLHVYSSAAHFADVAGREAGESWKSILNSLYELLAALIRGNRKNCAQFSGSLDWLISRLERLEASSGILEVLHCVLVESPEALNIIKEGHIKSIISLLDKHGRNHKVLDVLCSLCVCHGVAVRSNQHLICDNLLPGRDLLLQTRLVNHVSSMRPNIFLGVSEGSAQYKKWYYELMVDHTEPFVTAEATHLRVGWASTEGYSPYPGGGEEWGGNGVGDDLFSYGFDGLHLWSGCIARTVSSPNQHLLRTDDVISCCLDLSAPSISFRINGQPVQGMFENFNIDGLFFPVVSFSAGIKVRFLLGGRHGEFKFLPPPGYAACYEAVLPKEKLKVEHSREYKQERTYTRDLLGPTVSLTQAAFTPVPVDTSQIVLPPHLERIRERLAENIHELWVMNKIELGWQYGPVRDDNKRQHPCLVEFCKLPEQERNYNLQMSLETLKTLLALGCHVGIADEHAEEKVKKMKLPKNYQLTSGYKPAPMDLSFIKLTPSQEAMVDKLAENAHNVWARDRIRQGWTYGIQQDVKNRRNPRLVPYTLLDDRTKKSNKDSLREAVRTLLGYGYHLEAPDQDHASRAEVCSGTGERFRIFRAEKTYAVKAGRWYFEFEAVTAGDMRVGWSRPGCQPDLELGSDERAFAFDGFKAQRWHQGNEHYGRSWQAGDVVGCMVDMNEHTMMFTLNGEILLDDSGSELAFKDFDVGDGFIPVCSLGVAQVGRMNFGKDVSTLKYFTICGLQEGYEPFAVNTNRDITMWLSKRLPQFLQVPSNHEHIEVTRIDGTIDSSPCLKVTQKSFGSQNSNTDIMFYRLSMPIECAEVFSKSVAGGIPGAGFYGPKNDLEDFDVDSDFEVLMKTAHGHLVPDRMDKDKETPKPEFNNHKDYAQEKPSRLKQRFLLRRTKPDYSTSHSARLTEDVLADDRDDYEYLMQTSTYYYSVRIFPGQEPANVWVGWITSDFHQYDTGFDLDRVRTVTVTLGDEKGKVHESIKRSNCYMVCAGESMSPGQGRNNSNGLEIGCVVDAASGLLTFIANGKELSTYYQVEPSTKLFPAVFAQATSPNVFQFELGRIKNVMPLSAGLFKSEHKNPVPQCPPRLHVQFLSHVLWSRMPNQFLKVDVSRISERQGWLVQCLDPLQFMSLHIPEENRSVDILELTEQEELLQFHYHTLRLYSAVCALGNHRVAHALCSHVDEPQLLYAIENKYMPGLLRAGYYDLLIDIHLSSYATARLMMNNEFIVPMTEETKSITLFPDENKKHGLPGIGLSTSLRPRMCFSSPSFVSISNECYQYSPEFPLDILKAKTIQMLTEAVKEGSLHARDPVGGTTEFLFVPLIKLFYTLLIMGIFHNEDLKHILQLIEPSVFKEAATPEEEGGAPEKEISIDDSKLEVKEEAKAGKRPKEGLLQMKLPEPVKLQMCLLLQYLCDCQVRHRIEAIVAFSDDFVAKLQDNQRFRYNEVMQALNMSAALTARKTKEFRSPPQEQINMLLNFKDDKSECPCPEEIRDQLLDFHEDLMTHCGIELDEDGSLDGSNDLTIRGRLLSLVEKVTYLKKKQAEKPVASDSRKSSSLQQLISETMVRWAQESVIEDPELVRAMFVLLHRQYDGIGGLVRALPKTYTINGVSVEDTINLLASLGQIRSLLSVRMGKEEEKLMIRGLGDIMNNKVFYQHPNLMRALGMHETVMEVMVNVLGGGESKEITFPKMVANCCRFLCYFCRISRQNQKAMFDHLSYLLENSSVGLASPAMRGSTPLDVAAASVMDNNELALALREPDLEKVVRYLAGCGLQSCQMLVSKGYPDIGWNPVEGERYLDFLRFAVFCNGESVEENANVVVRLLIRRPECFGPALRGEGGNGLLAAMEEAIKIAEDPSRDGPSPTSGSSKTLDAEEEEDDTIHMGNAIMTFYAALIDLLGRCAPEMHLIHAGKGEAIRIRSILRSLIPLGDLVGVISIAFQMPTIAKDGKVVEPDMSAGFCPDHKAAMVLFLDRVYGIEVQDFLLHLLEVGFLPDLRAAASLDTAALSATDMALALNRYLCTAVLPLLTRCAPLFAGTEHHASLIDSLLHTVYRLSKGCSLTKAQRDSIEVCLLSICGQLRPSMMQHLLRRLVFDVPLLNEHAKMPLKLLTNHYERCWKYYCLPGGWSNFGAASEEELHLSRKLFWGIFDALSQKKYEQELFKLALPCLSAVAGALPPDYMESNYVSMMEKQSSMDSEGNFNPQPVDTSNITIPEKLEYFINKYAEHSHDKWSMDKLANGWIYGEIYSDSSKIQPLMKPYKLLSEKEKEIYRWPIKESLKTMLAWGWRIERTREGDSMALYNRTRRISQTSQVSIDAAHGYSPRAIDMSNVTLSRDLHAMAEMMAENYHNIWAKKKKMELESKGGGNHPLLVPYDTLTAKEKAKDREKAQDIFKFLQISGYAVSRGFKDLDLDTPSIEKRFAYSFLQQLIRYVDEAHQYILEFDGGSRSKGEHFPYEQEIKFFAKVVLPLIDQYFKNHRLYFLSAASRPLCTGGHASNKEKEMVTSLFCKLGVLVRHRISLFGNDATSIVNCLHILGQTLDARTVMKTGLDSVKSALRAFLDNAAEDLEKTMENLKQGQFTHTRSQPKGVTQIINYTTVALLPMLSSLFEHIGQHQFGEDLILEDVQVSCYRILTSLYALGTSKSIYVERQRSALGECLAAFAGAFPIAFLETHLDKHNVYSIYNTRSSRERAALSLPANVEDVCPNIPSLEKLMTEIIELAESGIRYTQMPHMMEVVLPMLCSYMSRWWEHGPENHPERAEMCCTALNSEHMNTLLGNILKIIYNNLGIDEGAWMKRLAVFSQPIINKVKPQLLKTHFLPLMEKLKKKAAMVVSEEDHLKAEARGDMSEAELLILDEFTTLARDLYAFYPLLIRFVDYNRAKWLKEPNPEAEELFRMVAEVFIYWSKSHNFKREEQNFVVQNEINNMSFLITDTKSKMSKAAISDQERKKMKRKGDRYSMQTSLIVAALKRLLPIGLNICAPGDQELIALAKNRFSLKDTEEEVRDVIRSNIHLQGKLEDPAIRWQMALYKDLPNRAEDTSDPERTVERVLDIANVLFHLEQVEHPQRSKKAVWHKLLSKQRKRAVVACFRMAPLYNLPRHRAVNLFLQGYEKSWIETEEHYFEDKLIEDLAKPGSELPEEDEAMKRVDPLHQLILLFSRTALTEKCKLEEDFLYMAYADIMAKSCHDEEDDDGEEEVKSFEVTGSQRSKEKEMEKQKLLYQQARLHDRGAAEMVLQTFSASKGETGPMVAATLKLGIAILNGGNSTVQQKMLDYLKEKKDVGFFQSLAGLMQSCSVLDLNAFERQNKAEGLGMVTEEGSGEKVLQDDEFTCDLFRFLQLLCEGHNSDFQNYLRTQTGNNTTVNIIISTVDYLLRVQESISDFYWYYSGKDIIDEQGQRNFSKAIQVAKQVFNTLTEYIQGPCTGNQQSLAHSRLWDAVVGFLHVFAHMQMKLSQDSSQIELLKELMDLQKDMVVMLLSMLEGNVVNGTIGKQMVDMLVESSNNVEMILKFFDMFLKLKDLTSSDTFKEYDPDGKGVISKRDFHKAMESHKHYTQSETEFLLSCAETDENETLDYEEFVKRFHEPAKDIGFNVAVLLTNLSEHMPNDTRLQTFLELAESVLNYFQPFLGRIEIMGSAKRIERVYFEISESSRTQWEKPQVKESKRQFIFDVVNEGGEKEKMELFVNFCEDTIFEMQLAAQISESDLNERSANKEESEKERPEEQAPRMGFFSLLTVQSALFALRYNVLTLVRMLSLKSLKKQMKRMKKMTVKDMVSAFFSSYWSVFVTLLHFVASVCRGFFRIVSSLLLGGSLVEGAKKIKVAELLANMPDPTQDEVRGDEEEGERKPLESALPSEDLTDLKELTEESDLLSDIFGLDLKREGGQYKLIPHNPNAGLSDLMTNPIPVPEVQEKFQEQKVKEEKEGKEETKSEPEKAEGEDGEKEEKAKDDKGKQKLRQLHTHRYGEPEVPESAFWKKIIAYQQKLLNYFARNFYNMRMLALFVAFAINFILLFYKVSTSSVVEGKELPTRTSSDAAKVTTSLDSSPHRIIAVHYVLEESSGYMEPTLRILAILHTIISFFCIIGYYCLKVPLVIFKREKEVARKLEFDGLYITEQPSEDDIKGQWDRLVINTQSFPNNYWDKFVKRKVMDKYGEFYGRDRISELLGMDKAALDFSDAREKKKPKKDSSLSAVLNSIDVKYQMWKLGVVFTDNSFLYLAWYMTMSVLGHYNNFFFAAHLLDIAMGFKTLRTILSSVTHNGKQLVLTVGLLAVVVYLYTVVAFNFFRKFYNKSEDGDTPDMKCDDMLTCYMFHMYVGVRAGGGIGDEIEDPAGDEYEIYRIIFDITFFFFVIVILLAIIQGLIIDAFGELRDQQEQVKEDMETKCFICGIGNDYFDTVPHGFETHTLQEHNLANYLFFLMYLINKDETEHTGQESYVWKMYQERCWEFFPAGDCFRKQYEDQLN
Chain of RyR2 (P68106 with tags, fused parts or gaps T15C/C23A/C77I partner): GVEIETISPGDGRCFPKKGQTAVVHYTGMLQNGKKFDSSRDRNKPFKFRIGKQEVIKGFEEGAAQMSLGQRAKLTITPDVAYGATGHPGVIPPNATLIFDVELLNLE
Procedure: These fluorescent proteins were added to saponin-permeabilized myocytes with or without pre-equilibration with saturating DPc10 concentration. […] We also did this with high [CaM] (500 nmol/L) that saturates RyR2 with CaM under control conditions (without DPc10; FIG. 17C). […] To test whether DPc10 and CaM bind at the same or nearby RyR2 sites, we measured FRET between CaM and DPc10.
FKBP12.6 can bind to and stabilize RyR2 channel gating, but details are controversial (Bers et al., Circ Res. 2012; 110:796-799). We measured the effect of H2O2 on FKBP12.6-RyR2 binding affinity in saponin-permeabilized myocytes using F-FKBP (Yang et al., Circ Res. 2014; 114:295-306; Cornea et al., Proc Natl Acad Sci USA. 2009; 106:6128-6133; Guo et al., Circ Res. 2010; 106:1743-1752; Guo et al., Biophys J. 2011; 101:2170-2177; Cornea et al., J Biol Chem. 2010; 285:19219-19226). […] We used 1 nmol/L F-FKBP (the its Kd) (Guo et al., Circ Res. 2010; 106:1743-1752), because at half-saturation it would be very sensitive to either an increase or decrease in RyR2 binding.

[1] = system: intracellular reactive oxygen species (ROS); experiment: Intracellular ROS by H2DCFDA fluorescence; assay type: cell-based, rat; conditions: 50 μmol/L H2O2, with or without dantrolene pretreatment
Procedure: Intracellular reactive oxygen species (ROS) formation was measured in rat cardiac myocytes using a fluorescent probe, 5-(and -6)-chloromethyl-2′,7′-dichlorodihydrofluoroscein diacetate (H2DCFDA, 10 μmol/L) (Terentyev et al., Circ Res. 2008; 103:1466-1472). This assay is widely used as a reliable method for the measurement of intracellular ROS such as hydrogen peroxide, hydroxyl radicals, and hydroperoxide. The H2DCFDA dye was excited with the 488 nm and emission was collected at 500-530 nm. The content of free thiols in RyR2 was determined based on the monobromobimane (mBB, Calbiochem) fluorescence intensity, as previously described (Terentyev et al., Circ Res. 2008; 103:1466-1472; Ho et al., J Physiol. 2011; 19:4697-4708). In brief, myocytes were incubated with mBB for 1 hr. Myocytes were then lysed in lysis buffer and loaded on 6% SDS-PAGE gels. The fluorescence emission intensity of the RyR2-bound mBB was measured at 482 nm by exciting at 382 nm. mBB fluorescence was normalized to the RyR2 amount, which was determined using quantitative densitometry of Coomassie Blue-stained gels.
To monitor intracellular ROS level, we used H2DCFDA (10 μmol/L). […] To assess whether dantrolene can attenuate the extent of RyR2 thiol modification in H2O2-treated myocytes, we used a monobromobimane (mBB) fluorescence labeling assay.

[2] = system: rat intact cardiomyocytes; experiment: Ca2+ sparks and SR Ca2+ content in intact cardiomyocytes; assay type: cell-based; conditions: for Ca2+ spark Amplitude (ΔF/F0) / Ca2+ spark FDHM / Ca2+ spark FWHM: H2O2 50 μmol/L, dantrolene 1 μmol/L
Procedure: Intact cardiomyocytes were loaded with Fluo-4 AM (5 μmol/L, Molecular Probes) for 15 min in NT solution (in mM): NaCl 140, KCl 4, MgCl2 1, CaCl2 2, glucose 10, HEPES 5, pH 7.4. Fluo-4 AM was excited at 488 nm and emission was recorded using a 500-530 nm bandpass filter. Ca^2+sparks were recorded after field stimulation at 1 Hz, and caffeine (10mmol/L) was rapidly perfused for assessing the SR Ca^2+content. Both Ca^2+sparks and SR Ca^2+content were recorded by using a laser scanning confocal microscope (RADIANCE2000™ MP, Bio-Rad, UK). Data were analyzed using SparkMaster, an automated analysis program that allows rapid and reliable spark analysis (Picht et al., J. Am J Physiol Cell Physiol. 2007;293:C1073-C1081). Spontaneous Ca^2+waves were recorded using a BZ9000 fluorescence digital microscope (Keyence, Japan), after 10 sec from field electric stimulation at 1,2,3,4 and 5 Hz, as described previously (Fukuda et al., Biochem Biophys Res Commun. 2014;448:1-7).
Oxidation induced by hydrogen peroxide (H2O2) is expected to activate SR Ca^2+ leak through RyR2 at diastolic [Ca]i (Wagner et al., Circ Res. 2011; 108:555-65; Yan et al., Cardiovasc Res. 2008; 77:432-41). We used line-scan images to measure the effects of 50 μM/L H2O2 on Ca^2+ spark frequency (CaSpF) and SR Ca^2+ content (evaluated via rapid caffeine application) in intact cardiomyocytes after 1 Hz electric field stimulation (FIG. 25). […] Thus H2O2 may enhance diastolic RyR2 channel opening. […] So CaSpF normalized to SR Ca^2+ content, was significant increase by H2O2 treatment of myocytes (FIG. 25C).

| effect on F-FKBP binding to the RyR2 (RyR2; 1 nmol/L F-FKBP, H2O2 50 μmol/L, with or without AIP or dantrolene) | Compound | intracellular ROS level [1] | CaSpF compared with control ([2]; 50 μM/L H2O2, after 1 Hz stimulation) | Ca2+ spark Amplitude (ΔF/F0) [2] | Ca2+ spark FDHM [2] [ms] | Ca2+ spark FWHM [2] [μm] | SR Ca2+ content ([2]; intact myocytes) | effect on FKBP12.6 binding to RyR2 (RyR2; AF488-FKBP12.6 1 nmol/L, preincubation with 5 μmol/L DPc10) | effect on H2O2-induced increase in frequency of Ca2+ sparks ([2]; dantrolene added before H2O2) | effect on control myocytes (Ca2+ sparks and SCW) ([2]; no H2O2) |
| --- | --- | --- | --- | --- | --- | --- | --- | --- | --- | --- |
| failed to alter | OO [H2O2, hydrogen peroxide] | increased | significantly increased | 0.57 ± 0.01 ΔF/F0 | 67.05 ± 3.25 | 2.04 ± 0.07 | did not significantly alter |  |  |  |
|  | GFCPDHKAAMVLFLDRVYGIEVQDFLLHLLEVGFLP [DPc10] |  |  |  |  |  |  | does not influence |  |  |
|  | O=C1CN(/N=C/c2ccc(-c3ccc([N+](=O)[O-])cc3)o2)C(O)=N1 [dantrolene] | does not alter |  | 0.55 ± 0.01 ΔF/F0 | 61.98 ± 3.35 | 1.93 ± 0.09 |  |  | suppressed | had no effect |
